Tests used:
[1] = tested on: CCRF-CEM ARAC-8C cells (Gem-resistant human acute lymphoblastic leukemia); experiment: Therapeutic effect under ionizing radiation: cell viability by trypan blue cell count; format: cell-based
Protocol: Just before the experiment, the cells (CCRF-CEM ARAC-8C) were dispersed in PBS and transferred to a 48-well microplate (TPP cell culture microplates purchased from Thermo Fisher Scientific, France) (40,000 cells in 80 μL/well). Gem (20 μL, final concentration 0.1 μM) or PBS (20 μL) and cis-GdAzo compound (100 μL, final concentration 0 μM, 250 μM, 500 μM or 850 μM) were added just prior to gamma irradiation of the medium (2 Gy). The medium was maintained in the dark and in a humid atmosphere at 37° C. with 5% CO2 for 1 h. Next, culture medium (600 μL) was added to each well and the cells were washed by three centrifugation cycles (300 G, 5 min, 800 μL of culture medium used for each wash). The cells were finally dispersed in culture medium (600 μL) containing or not containing Gem (final concentration 0 μM or 0.1 μM) and were maintained in a humid atmosphere at 37° C. with 5% CO2 for 4 days. The number of live cells was determined by cell count in the presence of 1:1 (v/v) trypan blue (triplicate). The experiment was repeated three times independently. Cell viability was expressed as the ratio of the number of living cells after treatment to the number of living cells without any treatment (without irradiation, in the absence of Gem and cis-GdAzo). A similar procedure was used for the control experiment without irradiation except that the 48-well microplate was not irradiated with gamma rays. A similar procedure was used for the control experiment with Dotarem® (FIG. 2f) except that Dotarem® was used instead of cis-GdAzo. The cis-GdAzo compound was obtained by UV irradiation (365 nm, 0.817 mW·cm−2, 30 min) of the trans-GdAzo compound (105 μL, 500 μM, 1 mM or 1.7 mM, cis-GdAzo>85%) in a 96-well microplate.

[2] = Thermal relaxation of the compound; format: physicochemical
[3] = Quantification of ionizing-radiation-induced isomerization (molecular activation) by HPLC; format: physicochemical
Protocol: Gamma ray irradiation. Gamma irradiation was performed with a Cesium-137 source (IBL 637) providing 662 keV photons at a dose rate of approximately 1 Gy/min. Radiation doses are expressed in Gray ([…]).
Gd-containing compounds (GdAzo or GdFAzo) and control compounds (Azo or FAzo) (50 μM, 200 μL, PBS) were introduced into two 96-well microplates (10 wells for each compound). Both microplates were first irradiated under UV light (365 nm, 0.817 mW·cm^−2, 5 min). One microplate (plate 1) was then kept in the dark and used as a non-irradiated control while the second (plate 2) was irradiated with an increment of ionizing radiation doses (2 Gy, 3 Gy, 5 Gy and 10 Gy). After each irradiation, absorbance spectrophotometric and HPLC injection (method C) analyses were performed on the non-irradiated (plate 1) and irradiated (plate 2) compounds. A 26 min time lag between UV irradiation of plates 1 and 2 was used to allow analysis of the unirradiated control compounds (plate 1) at the same time as the ionizing irradiated compounds (plate 2) after UV irradiation. […] The absorbance spectra were plotted by the mean of triplicates. The relative amount of each isomer was obtained by HPLC (detection at the isosbestic point wavelength under elution conditions) and the molecular activation (%) was determined by the difference in the proportion of trans isomer in the medium (3 independent experiments).

[4] = tested on: Cells (PANC-1); experiment: Confocal microscopy in the presence of ionizing radiation: cell permeabilization (propidium iodide); format: cell-based, human
Protocol: Cells (PANC-1) were transferred to an imaging plate (Lab-Tek chamber slide system, glass, 8-well purchased from Thermo Fisher Scientific, France) 24 h before the start of the experiment, and were maintained in culture medium (10,000 cells in 200 μL/well) in a humid atmosphere at 37° C. with 5% CO2. Just before the experiment, the cell medium was replaced with PBS (100 μL) and IP (5 μL, final concentration 1 μM) was added to the medium. 15 min after the addition of PI, cis-GdAzo (100 μL, final concentration 0 μM, 250 μM, 500 μM or 850 μM) was introduced into the cell medium. A first series of images was acquired at this stage, and then the imaging plate was irradiated (gamma rays, 2 Gy). The imaging plate was then kept in the dark at 37° C. (plate warmer) and images were acquired every 5 min for 30 min and then every 10 min for 90 min. A similar procedure was used for the control experiment without irradiation except that the imaging plate was not irradiated with gamma rays. The cis-GdAzo compound was obtained by UV irradiation (365 nm, 0.817 mW·cm^−2, 30 min) of the trans-GdAzo compound (105 μL, 500 μM, 1 mM or 1.7 mM, cis-GdAzo>85%) in a 96-well microplate. […] The instrument was equipped with a laser diode at 561 nm as excitation wavelength. The red fluorescence emission was collected over a bandwidth of 598-672 nm and the transmission images were obtained with a white diode. The pinhole was set at 50 μm and the magnification lens at 1.2. The images were recorded by an e-Volve s-CMOS camera (Photometrics). Four images were recorded per well and two wells were used for each concentration of cis-GdAzo. Analysis of the 16-bit digital images was performed using ImageJ software (version 1.50i with the Adjustable Watershed plugin). The number of cells in the images acquired before irradiation was determined manually and the number of fluorescent cells in the images acquired before and after irradiation was calculated automatically using a script coded on ImageJ. Cell permeabilization was determined by the difference in the proportion of fluorescent cells before and 30 min after gamma irradiation (3 independent experiments).

CNC[C@H](O)[C@@H](O)[C@H](O)[C@H](O)CO.O=C([O-])CN1CCN(CC(=O)[O-])CCN(CC(=O)O)CCN(CC(=O)[O-])CC1.[Gd+3] [Dotarem®, reference compound]
therapeutic effect under ionizing radiation ([1]; gamma irradiation (2 Gy), with or without Gem (0.1 μM), FIG. 2f): no therapeutic effect

Gadolinium 2,6-difluoro-4-(N-(1,4,7,10-tetraazacyclododecane-1,4,7-triacetic acid-10-glutaryl)-ethoxyamine)-2′,6′-difluoro-4′-butoxyazobenzene [GdFAzo]
thermal relaxation [2]: slow enough | activation of the compound compared to GdAzo ([3]; in vitro experimental conditions, FIG. 1c): relatively low | activation by ionizing radiation ([3]; ionizing radiation (X-rays, gamma rays, electrons), FIGS. 1a-f): can also be activated

Gadolinium 4-(N-(1,4,7,10-tetraazacyclododecane-1,4,7-triacetic acid-10-glutaryl)-ethoxyamine)-4′-butoxyazobenzene [GdAzo]
cell viability 4 days after treatment ([1]; 250 μM, absence of gemcitabine, gamma radiation at 2 Gy): 23% | cell viability 4 days after treatment ([1]; 250 μM, absence of gemcitabine, without irradiation): 79% | cell viability 4 days after treatment ([1]; 250 μM, presence of gemcitabine (0.1 μM), gamma radiation at 2 Gy): 15% | cell viability 4 days after treatment ([1]; 250 μM, presence of gemcitabine (0.1 μM), without irradiation): 49% | cell viability 4 days after treatment ([1]; 500 μM, absence of gemcitabine, gamma radiation at 2 Gy): 18% | cell viability 4 days after treatment ([1]; 500 μM, absence of gemcitabine, without irradiation): 42% | cell viability 4 days after treatment ([1]; 500 μM, presence of gemcitabine (0.1 μM), gamma radiation at 2 Gy): 9.1% | cell viability 4 days after treatment ([1]; 500 μM, presence of gemcitabine (0.1 μM), without irradiation): 30% | cell viability 4 days after treatment ([1]; 850 μM, absence of gemcitabine, gamma radiation at 2 Gy): 3.0% | cell viability 4 days after treatment ([1]; 850 μM, absence of gemcitabine, without irradiation): 27% | cell viability 4 days after treatment ([1]; 850 μM, presence of gemcitabine (0.1 μM), gamma radiation at 2 Gy): 1.2% | cell viability 4 days after treatment ([1]; 850 μM, presence of gemcitabine (0.1 μM), without irradiation): 16% | cell permeabilization ([4]; 250 μM, gamma rays at 2 Gy, 30 min after irradiation): 6.9% | cell permeabilization ([4]; 250 μM, without irradiation): 1.2% | cell permeabilization ([4]; 500 μM, gamma rays at 2 Gy, 30 min after irradiation): 8.2% | cell permeabilization ([4]; 500 μM, without irradiation): 2.8% | cell permeabilization ([4]; 850 μM, gamma rays at 2 Gy, 30 min after irradiation): 12.4% | cell permeabilization ([4]; 850 μM, without irradiation): 7.5%
